Columns and labels:
[1] = system: mouse sound-induced convulsion model; assay: Mouse sound-induced convulsion model (tonic convulsion, hindlimb extension); type: in vivo; details: 0.5 h, DBA/2 JJcl mice, oral, sound stimulation 30 minutes after administration, % Tonic convulsion, regression analysis
Description: A mouse sound-induced convulsion model test was carried out to confirm the suppressive effect on convulsions. Tonic convulsion induced by sound stimulation is used as the index for evaluation in this model (European Journal of Pharmacology, 222, p 193-203(1992)).
Three-week-old male DBA/2 JJcl mice (Clea Japan, Inc.) were provided for the test (n=5 for each treatment, total 2 times). Tonic convulsion induced by sound stimulation was used as the indicator for evaluation (see aforementioned publication).
Compound (Ia) and/or compound (11) was dissolved in a 0.4% methyl cellulose/5% cremophor/5% IN hydrochloric acid/10% dimethyl sulfoxide solution for an administered dose of 20 mL/kg each to prepare samples which were orally administered. A mixed solution without the compound (vehicle) was used as a negative control. Sound stimulation (11 kHz, 115 dB, duration: 30 sec) was carried out 30 minutes after administration of the samples, to induce convulsions. Immediately after cessation of the sound stimulation, tonic convulsion was evaluated by observing the presence or absence of hindlimb extension. […]

mouse kindling models = details: PTL 1; cited from earlier work

SMILES	ED50 [1]	effect on seizure severity (score) (mouse kindling models)
N#Cc1ccccc1-c1cc(-c2ccccn2)cn(-c2ccccc2)c1=O [compound (II), 3-(2-cyanophenyl)-5-(2-pyridyl)-1-phenyl-1,2-dihydropyridin-2-one, reference compound]	0.33 mg/kg	
NS(=O)(=O)N[C@H]1c2c(F)cc(F)cc2CC1(F)F [compound (Ia), N-[(1S)-2,2,5,7-tetrafluoro-2,3-dihydro-1H-inden-1-yl]sulfamide]	53 mg/kg	ameliorating effect
NS(=O)(=O)N[C@H]1c2c(F)ccc(F)c2CC1(F)F [compound (Ib), N-[(1S)-2,2,4,7-tetrafluoro-2,3-dihydro-1H-inden-1-yl]sulfamide]		ameliorating effect
NS(=O)(=O)N[C@H]1c2c(F)c(F)cc(F)c2CC1(F)F [compound (Ic), (+)-N-(2,2,4,6,7-pentafluoro-2,3-dihydro-1H-inden-1-yl)sulfamide]		ameliorating effect
